Common to all, as to assay: NCI-60 cell line screen, 48 h
Test [1] concerns 786-0.
The test system of test [2] is CAKI-1.
Test [3] concerns CCRF-CEM.
The test system of test [4] is HL-60.
In test [5] the test system is M14.
The subject of test [6] is MCF7.
Test [7] concerns MDA-MB-231.
Test [8] relates to NCI/ADR-RES.
Test [9] has as its system RPMI-8226.
For test [10], the system named is SF-295.
Test [11] deals with SK-MEL-2.
In test [12] the test system is SK-MEL-5.
Test [13] has as its system SNB-19.
For test [14], the system named is SNB-75.
In test [15] the test system is SR.
Test [16] has as its system SW-620.
Test [17] deals with TK-10.
Test [18] relates to U-251.
The subject of test [19] is UO-31.
Test [20] has as its system RXF 393.

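96-well plates; 48 h exposure; 5 concentrations. Endpoints by linear interpolation between flanking doses. Not reached: highest tested concentration assigned. GI50: concentration for 50% inhibition of growth.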 Activity calls are given as the source filed them. Cut-off read from the data, not from the text of the source: active = GI50 up to about 1.1 µM and inactive = higher. Where a SMILES comes first, the peptide text is derived from it. The star is where a group is joined. Cbz = O=C(OCc1ccccc1)* Where only a bound is given, the exact number is not on record here.

In the case of `O=c1cc(-c2ccc(O)cc2)oc2cc(O[C@@H]3O[C@H](CO)[C@@H](O)[C@H](O)[C@H]3O)cc(O)c12` [APIGETRIN], the GI50 in [1] was > 100 µM (inactive); in test [2] it was 0.239 µM (active); in [3], 75.9 µM (inactive); in test [4], 80.5 µM (inactive); in test [5] it was > 100 µM (inactive); in [6], > 100 µM (inactive). In addition, the GI50 in [7] was 86.1 µM (inactive); in test [8] it was 42 µM (inactive); in [9], > 100 µM (inactive); in test [10], 62.8 µM (inactive); in [11] it was 61.5 µM (inactive); in [12], 46 µM (inactive). Moreover, the GI50 in test [13] was 39.4 µM (inactive); in test [14] it was 40.8 µM (inactive); in [15] it was 0.0752 µM (active); in test [16], 72.9 µM (inactive); in [17], > 100 µM (inactive); in test [18] it was 71 µM (inactive). In addition, the GI50 in test [19] is 43.2 µM (inactive).

For the compound `CCOC(=O)COc1ccc2c(C)cc(=O)oc2c1`, the GI50 in test [1], in [2], in test [3], in test [4], in [5] and in test [6] was > 100 µM (inactive) in each case. The GI50 in test [7], in test [8], in [9], in test [20], in test [10] and in [11] was > 100 µM (inactive) each time. The GI50 in [12], in [13], in test [14], in test [15], in test [16] and in test [18] was > 100 µM (inactive) in each case. Moreover, the GI50 in [19] is > 100 µM (inactive).

Consider `COC(=O)C1C(O)C(C)C(O)C(C)(O)C=C(C)C2=C3C(=C(C)C(=O)c4c(O)c(c(C)c(OC(C)=O)c43)NC(=O)C(C)=C/C=C\C(C)(O)C(O)C(C)C1O)OCO2` (stereo unspecified), for which the GI50 is > 100 µM (inactive) in test [1]; 49.8 µM (inactive) in test [3]; 25.2 µM (inactive) in test [4]; 43.6 µM (inactive) in test [5]; 41.3 µM (inactive) in test [6]; 32.5 µM (inactive) in test [7]. Also, the GI50 was > 100 µM (inactive) in test [8]; 45.4 µM (inactive) in test [9]; > 100 µM (inactive) in test [20]; > 100 µM (inactive) in [10]; 22.9 µM (inactive) in test [11]; 18.3 µM (inactive) in test [12]. The GI50 in test [13] was > 100 µM (inactive); in [14], > 100 µM (inactive); in [15], 49.4 µM (inactive); in [16], 40.8 µM (inactive); in [17], > 100 µM (inactive); in [18] it was > 100 µM (inactive). Further, in test [19], the GI50 was 91.6 µM (inactive).

Turning to `O=C1C(Cl)C2(CC(/C=C/c3ccccc3Cl)=NN2c2cccc(S(=O)(=O)O)c2)N1c1nc2ccccc2s1` (stereo unspecified), the GI50 was 21.9 µM (inactive) in [1]; 17.2 µM (inactive) in test [2]; 8.11 µM (inactive) in test [3]; 6.67 µM (inactive) in test [4]; 72.6 µM (inactive) in test [5]; 21.6 µM (inactive) in test [6]. The GI50 in [7] is 79.8 µM (inactive); in test [8] it was > 100 µM (inactive); in [9], 9.29 µM (inactive); in [20] it was 42.8 µM (inactive); in [11], > 100 µM (inactive); in test [12], 21.4 µM (inactive). Besides, the GI50 in test [13] was > 100 µM (inactive); in test [14] it was 43.5 µM (inactive); in test [15], 1.35 µM (inactive); in test [16], 19.4 µM (inactive); in [17], 24.2 µM (inactive); in test [18] it was 41.7 µM (inactive). Besides, in test [19], the GI50 is 4.82 µM (inactive).

As to `CCOc1c(OC)cc(-c2nc3n(n2)C(=O)C(CC)S3)cc1OC` (stereo unspecified), the GI50 in test [1], in test [2], in test [3], in test [4], in test [5] and in test [6] was > 10 µM (inactive) throughout. Besides, the GI50 in test [7], in test [8], in test [9], in test [20], in test [10] and in test [11] was > 10 µM (inactive) throughout. Moreover, the GI50 in [12], in [13], in test [14], in test [15], in [16] and in test [17] was > 10 µM (inactive) each time. In addition, the GI50 in test [18] is > 10 µM (inactive).

Consider `N=c1oc2ccccc2cc1C(=O)Nc1cccc2ccccc12`, for which the GI50 in [1] was 80 µM (inactive); in test [2], > 100 µM (inactive); in [3] it was > 100 µM (inactive); in [4], > 100 µM (inactive); in [5], > 100 µM (inactive); in test [6] it was 83.2 µM (inactive). In addition, the GI50 in [7], in test [8], in test [9], in test [20], in [11] and in test [12] was > 100 µM (inactive) throughout. Besides, the GI50 in test [13] is > 100 µM (inactive); in test [14], > 100 µM (inactive); in [15] it was > 100 µM (inactive); in test [16], > 100 µM (inactive); in test [18], 82.4 µM (inactive).

For `CC(C)(CO)CNc1cc(Cl)nc(N)n1`, the GI50 in test [1], in test [2], in test [3], in [4], in [6] and in test [7] was > 100 µM (inactive) in each case. For the same compound, the GI50 in test [8], in test [9], in [20], in test [10], in test [11] and in test [12] was > 100 µM (inactive) throughout. The GI50 in test [14], in [15], in [16], in test [17], in test [18] and in [19] was > 100 µM (inactive) each time.

In the case of `COc1cc(/C=C/C(=O)C2(C(=O)/C=C/c3cc(OC)c(OC)c(OC)c3)CCCCC2)cc(OC)c1OC`, the GI50 in test [1] is 43.2 µM (inactive); in test [2] it was 49.4 µM (inactive); in [3], 34.3 µM (inactive); in test [4] it was 52 µM (inactive); in test [5] it was 29.9 µM (inactive); in test [6], 27.6 µM (inactive). For the same compound, the GI50 was 42.9 µM (inactive) in test [7]; 32.1 µM (inactive) in [8]; 18.3 µM (inactive) in test [9]; 34.8 µM (inactive) in [10]; > 100 µM (inactive) in [11]; 34.8 µM (inactive) in test [12]. Further, the GI50 was 36.6 µM (inactive) in [13]; 56.4 µM (inactive) in [14]; 19.4 µM (inactive) in [15]; 38.3 µM (inactive) in test [16]; 34.3 µM (inactive) in test [17]; 30.1 µM (inactive) in test [18]. The GI50 in test [19] was 60.7 µM (inactive).

As to `COC(=O)C(CC(C)C)NC(=O)C(CCCNC(=N)N)NC(=O)OCc1ccccc1` (stereo not drawn) (Cbz-Arg-Leu-OMe; configuration not given here), the GI50 in test [1], in test [2], in test [3], in test [4], in test [5] and in test [6] was > 100 µM (inactive) throughout. Further, the GI50 in test [7], in test [8], in [9], in [20], in test [10] and in [12] was > 100 µM (inactive) throughout. Also, the GI50 was > 100 µM (inactive) in [13]; 72.6 µM (inactive) in test [14]; > 100 µM (inactive) in [15]; > 100 µM (inactive) in [16]; > 100 µM (inactive) in test [17]; > 100 µM (inactive) in test [18]. In test [19], the GI50 is > 100 µM (inactive).

For `C1=N\CCN2CCN(CC/N=C\c3ccccc3OCc3cccc(n3)COc3ccccc3/1)CC2`, the GI50 is 5.13 µM (inactive) in [1]; 3.39 µM (inactive) in test [3]; 3.16 µM (inactive) in [4]; 7.74 µM (inactive) in test [5]; 1.52 µM (inactive) in test [6]; 16.4 µM (inactive) in test [7]. Moreover, the GI50 is 2.28 µM (inactive) in test [8]; 2.48 µM (inactive) in [9]; 0.508 µM (active) in [20]; 3.62 µM (inactive) in test [10]; 20.6 µM (inactive) in test [11]; 9.91 µM (inactive) in test [13]. Also, the GI50 in test [14] was 9.66 µM (inactive); in [15], 1.71 µM (inactive); in test [16] it was 2.35 µM (inactive); in test [17], 8.3 µM (inactive); in [18], 2.26 µM (inactive); in [19], 13.8 µM (inactive).

The record behind these values is ChEMBL document CHEMBL1201862, “PubChem BioAssay data set” (2004).
